In assay [1] the test system is Mycobacterium tuberculosis. The assay is described as follows: Minimum inhibition concentration required against isoniazid resistant Mycobacterium tuberculosis was determined in monolayers of mouse bone marrow macrophages. It is filed as functional.
For assay [2], the system named is Mycobacterium tuberculosis. Kind of assay: Minimum bactericidal required against isoniazid resistant Mycobacterium tuberculosis was determined in monolayers of mouse bone marrow macrophages. It counts as functional.

Molecules are shown by their SMILES.

In assay [1], `NNC(=O)c1ccncc1` [ISONIAZID] came in with an MIC of more than 0.2 µg/mL. Moreover, in assay [2], the MBC is more than 1.6 µg/mL.

Values taken from ChEMBL document CHEMBL1138642, “In vitro advanced antimycobacterial screening of cobalt(II) and copper(II) complexes of fluorinated isonicotinoylhydrazones” (2004).
